Measurements reported in patent publication US20040033944A1, “Method of treating erectile dysfunction” (priority 1999, published 2004).
Like-named read-outs stand apart in the source and are kept apart here.

Experiments:
[1] = test system: corpora cavernosa smooth muscle; conditions: hypercholesterolemic rabbits, three weekly intracavernosal injections of VEGF
Description: Fifteen male New Zealand White rabbits weighing 2 to 2.5 kg were used in a total of two arms in the study. […] Random serum total cholesterol levels were measured at the beginning of the study and after four weeks of the 1% cholesterol diet. At the end of four weeks, each rabbit underwent total penectomy and then was sacrificed. Each penis yielded two strips of tissue with a small amount of erectile tissue being placed in neutral buffered formalin 10%. The strips were suspended in tissue baths, and isometric tension studies were performed. Dose-response curves for norepinephrine were generated first in each strip to assess adrenergic-mediated cavernosal smooth muscle contraction. Next, dose-response curves for histamine were generated to assess histamine receptor mediated contraction of cavernosal smooth muscle. Submaximal contraction was then produced with 10^−3 concentration of norepinephrine and dose-response curves were then generated to evaluate endothelial-dependent (acetylcholine) smooth muscle relaxation. Once again, a submaximal contraction was produced using 10^−5 concentration of norepinephrine and dose response curves were then generated to evaluate endothelial-independent (sodium nitroprusside) smooth muscle relaxation.
Tissue. Cavernosal tissue procurement was performed under general anesthesia induced with Ketamine 50 mg/kg SC (Ketaset, Bristol Laboratories, Syracuse, N.Y.) and Xylazine 30 mg/kg SC (Rompun, Mobay Corp., Shawnee, Kans.). The penis was excised en bloc and placed in warm Krebs solution, where the corpora cavernosa were sharply dissected from the tunica albuginea producing a strip (approximately 0.3×0.3×0.7 cm.) from each corpus. The strips were then mounted in the oxygen tissue baths. After tissue collection, the rabbits were euthanized with an overdose of intravenous sodium pentobarbitol (100 mg/kg to effect). Care was taken throughout the procedure to minimize tissue manipulation.
Tissue Chambers. Each cavernosal strip was placed in a 25 ml tissue bath (Kent Scientific Corp.. Litchfield, Conn.). One end was hooked to a tissue holder and the other end w as hooked to a force transducer (FTO3, Grass Instruments, Quincy, Mass.) for determination of isometric tension. The bath was filled with a modified Kreb's physiologic salt solution with the following millimolar composition: NaCl 122, KCl 4.7, MgCl2 1.2, CaCl2 2.5, NaHCO3 15.4, KH2PO4 1.2. and glucose 5.5. A circulating water bath kept tissue chamber temperatures at 37C. Continuous aeration with 95% oxygen and 5% carbon dioxide maintained a pH of 7.4.
Optimal isometric tension determination. Each of the force transducers was connected to a transducer positioner enabling preload tension adjustment. Following suspension in the tissue chambers, the tension was periodically adjusted (at least every fifteen minutes) until the strip equilibrated at 0.5 gm. […] The optimal preload tension was then determined by contracting the tissue with 60 mM KCl Krebs solution (prepared by substituting 60 mM of sodium with equimolar amounts of potassium in Krebs-PSS solution) at increasing levels of preload (0.5 gm. increments). […] All subsequent testing was then performed at the determined optimal resting tension for each strip: Monitoring of tension was done with a four-channel polygraph (Grass 7D, Grass Instruments).
Isometric tension studies. The tissue was washed with Kreb's solution every fifteen minutes after each study until the tissue returned to baseline (at least one hour). Dose response curves for norepinephrine were obtained by cumulative addition of norepinephrine (10^−9 to 10^−4) in logarithmic increments.

adult rabbit penis = conditions: intracavernosal injections of VEGF
corporal smooth muscle = conditions: for Acetylcholine ED50 (−Log (M)) / Sodium Nitroprusside ED50 (−Log (M)): 10 days after injection, mean SEM
Description: (§1) Animals: Male New Zealand White rabbits weighing 2.5-3 kg were fed either a normal rabbit diet (n=12) or a 1% cholesterol diet (n=12) (Harland Teklab, Madison, Wis.) for a total of 7.5 weeks. […] Ten days after the injection, the rabbits were euthanized and underwent penectomy with meticulous dissection of the corpora cavernosa from the tunica albuginia. Total serum cholesterol was determined using the enzymatic method prior to the initiation of the experimental diet and on serum samples drawn immediately prior to the procedure. Animal care and handling complied with published Guidelines (Institute of Laboratory Animal Resources, Commission on Life Sciences, National Research Council. Guide for the Care and Use of Laboraiton Animals. Washington: National Academy Press (1996)).
Isometric tension studies. Two corporal strips from each animal were suspended in 5 ml capacity organ baths containing Krebs physiological salt solution (122 mmol/liter NaCl. 4.7 mmol/liter KCl, 1.2 mmol/liter MgCl2, 2.5 mmol/liter CaCl2, 15.4 mmol/liter NaHCO3, 1.2 mmol/liter KH2PO4, and 5.5 mmol/liter glucose) maintained at 37° C. and oxygenated with 95% O2 and 5% CO2. Strips were attached to an adjustable force transducer and isometric responses were recorded on a multi-channel polygraph (Myograph F-60; Physiograph MK111-S; Narco Bio-Systems, Houston, Tex.). […] All subsequent testing was then performed at the optimal resting tension for each strip. Strips were sub-maximally pre-contracted with 10^−5 M norepinephrine, and after a contractile plateau was reached, acetylcholine (10^−8 to 10^−3 M) or sodium nitroprusside (10^−8 to 10^−4 M) was added cumulatively in logarithmic increments. Relaxation in response to each agent is expressed as a percentage of the active tension generated by the 10^−5 M dose of norepinephrine and converted to percentage of maximal response at each dose. These values were plotted against the negative logarithm of the agonist dose to produce relaxation dose-response curves. Logistic regression analysis with logit transformation was performed on the cumulative dose response curves from each treatment group to determine the ED25. ED50 and ED75 for each agent (Finney, Statistical Method in Biological Assay (3 ed.). London: Charles Griffin and Company LTD, p. 349-369 (1978), Kim et al, J Urol 151:198-205 (1994)).
(§2) Statistical evaluation. Each treatment group contained 6 animals (corporal strip n=12). Data are expressed as the mean±standard error of the mean (SEM). The responses of strips from each treatment group to acetylcholine or sodium nitroprusside were compared using the independent samples T-Test. […] The ED50 (sensitivity) and the maximal response were the principal outcomes assessed for each agent, and adjusting for multiple comparisons each outcome was assessed at the 0.025 level. Secondary outcomes, including cholesterol level, and the ED25 and the ED75 for each agent were tested at the 0.05 level without adjustment for multiple comparisons.
(§3) The route of administration can affect the efficacy of treatments for erectile dysfunction, as is seen in the difference between intrauretheral and intracavernosal alprostadil. […] Ten days after injection isometric tension studies were performed on corporal tissue. Sensitivity and maximal relaxation to acetylcholine (ACH) and sodium nitroprusside (SNP) were compared between treatment groups.
(§4) Ten days after injection, their corpora cavernosa were harvested, and isometric tension studies were performed. Relaxation to acetylcholine (ACH) and sodium nitroprusside (SNP) was compared within each group.
Animals: 36 New Zealand White rabbits were fed either a normal rabbit diet (n=12) or a 1% cholesterol diet (n=24) (Harland Teklab, Madison, Wis.) for a total of 7.5 weeks.

VEGF in corporal tissue = test system: VEGF in corporal tissue
Description: Animals: 36 New Zealand White rabbits were fed either a normal rabbit diet (n=12) or a 1% cholesterol diet (n=24) (Harland Teklab, Madison, Wis.) for a total of 7.5 weeks. […] Ten days after the injection, the rabbits were euthanized and underwent penectomy with meticulous dissection of the corpora cavernosa from the tunica albuginia. Total serum cholesterol was determined prior to the initiation of the experimental diet and immediately prior to the procedure.
Frozen corporal tissues were sonicated in 50 mM Tris radioimmunoprecipation assay buffer for 1 minute for protein isolation. […] The samples were quantified with a Molecular Devices Kinetic microplate reader using Apple SoftMax software. One ELISA was performed for each animal in each treatment group.
Statistical evaluation. Data are expressed as the mean standard error of the mean (SEM). […] Statistical significance was determined at the 0.05 level.

[2] = test system: VEGF protein expression in corporal tissue; conditions: for VEGF immunoexpression: IC VEGF 0.9 mg, mean±SEM
Description: as §1, §2, §3, §4

[3] = test system: trabecular smooth muscle content of corporal tissue; conditions: cholesterol-fed rabbits
Description: as §1
Statistical evaluation. Each treatment group contained 6 animals (corporal strip n=12). Data are expressed as the mean±standard error of the mean (SEM). The responses of strips from each treatment group to acetylcholine or sodium nitroprusside were compared using the independent samples T-Test. […] The ED50 (sensitivity) and the maximal response were the principal outcomes assessed for each agent, and adjusting for multiple comparisons each outcome was assessed at the 0.025 level. […]

[4] = cholesterol-fed rabbits, IV VEGF 0.9 mg vs vehicle
[5] = cholesterol-fed rabbits, intracavernosal 0.9 mg VEGF at week 6, 10 days after injection, mean±SEM
[6] = cholesterol-fed rabbits, single intravenous bolus VEGF 0.9 mg vs vehicle

Substance: VEGF
- Acetylcholine Percent Maximal Relaxation [1]: 94.5±8.41%
- Sensitivity to Acetylcholine ED25 [1]: −5.48 ± 0.33
- Sensitivity to Acetylcholine ED75 [1]: −3.50 ± 0.41
- Sensitivity to Sodium Nitroprusside ED75 [1]: −5.52 ± 0.18
- Sodium Nitroprusside Percent Maximal Relaxation [1]: 145 ± 8.26%
- tumescence (adult rabbit penis): approximately 80%
- Acetylcholine ED50 (−Log (M)) (corporal smooth muscle; Cholesterol / IC VEGF 0.9 mg): 4.94 0.25 −Log (M)
- Sodium Nitroprusside ED50 (−Log (M)) (corporal smooth muscle; Cholesterol / IC VEGF 0.9 mg): 6.36 0.16 −Log (M)
- Acetylcholine ED50 (−Log (M)) (corporal smooth muscle; Cholesterol / IV VEGF 0.9 mg): 6.33 0.40 −Log (M)
- Sodium Nitroprusside ED50 (−Log (M)) (corporal smooth muscle; Cholesterol / IV VEGF 0.9 mg): 6.93 0.25 −Log (M)
- endothelium-dependent (acetylcholine) smooth muscle relaxation, effect of VEGF treatment (corporal smooth muscle; cholesterol-fed rabbits, IC VEGF 0.9 mg vs vehicle): not affected
- SNP-mediated, direct smooth muscle relaxation, effect of IV VEGF treatment (corporal smooth muscle; [4]): significantly improved
- endothelium-dependent smooth muscle relaxation, effect of IV VEGF treatment (corporal smooth muscle; [4]): augmented
- maximal relaxation to acetylcholine (corporal smooth muscle; [5]): 78.6±6.2 grams
- maximal relaxation to sodium nitroprusside (corporal smooth muscle; [5]): 113.9±6.3 grams
- sensitivity (ED50) to acetylcholine relaxation (corporal smooth muscle; [5]): 4.94±0.25 (−Log)(M)
- sensitivity to sodium nitroprusside relaxation at ED50 (corporal smooth muscle; [5]): 6.36±0.16 (−Log)(M)
- sodium nitroprusside relaxation ED75 (corporal smooth muscle; [5]): 5.75±0.16 (−Log)(M)
- endothelium dependent (ACH-mediated) maximal corporal smooth muscle relaxation, effect of VEGF (corporal smooth muscle; [6]): significantly augmented
- endothelium independent (SNP-mediated) maximal corporal smooth muscle relaxation, effect of VEGF (corporal smooth muscle; [6]): significantly augmented
- sensitivity (ED50) to ACH, effect of VEGF (corporal smooth muscle; [6]): enhanced
- sensitivity (ED50) to SNP, effect of VEGF (corporal smooth muscle; [6]): enhanced
- VEGF ELISA optical density (OD) minus background (VEGF in corporal tissue; cholesterol-fed animals treated with VEGF (IC)): 0.168
- VEGF ELISA optical density (OD) (VEGF in corporal tissue; cholesterol-fed animals, IV VEGF administration): 0.128
- VEGF immunoexpression ([2]; cholesterol-fed animals): 19.67±1.38 arbitrary units
- VEGF protein immunoexpression, effect of IV VEGF ([2]; cholesterol-fed animals, IV VEGF 0.9 mg vs vehicle): augmented
- VEGF immunoexpression ([2]; normal diet animals): 37.6±1.12 arbitrary units
- VEGF expression, effect of VEGF therapy ([2]; single intracavernosal VEGF 0.9 mg vs vehicle): augmented
- smooth muscle content, effect of VEGF treatment ([3]; IC VEGF 0.9 mg vs vehicle): not affected
- trabecular smooth muscle content ([3]; IC VEGF 0.9 mg, relative to normal diet, vehicle-treated = 1.0, mean±SEM): 0.82±0.016 arbitrary units
